Measured values from paper PMC8341922, “Glycosylated cyclophellitol-derived activity-based probes and inhibitors for cellulases” (RSC Chemical Biology, 2020).

Legend:
HiCel7B [1] = target: T1, HiCel7B (Mycothermus thermophilus, UniProt P56680); experiment: continuous fluorescence inhibition kinetics with 4MU-GG, kapp vs [inhibitor]; also intact MS and crystal structure; format: biochemical; settings: covalent; 50 mM sodium phosphate pH 7, 25 °C; 50 μM 4MU-GG; corrected for substrate KM; nucleophile E197; read-out: HiCel7B / K I
T1 construct: gene CEL7B; purified enzyme, gift from Novozymes; deglycosylated for crystals
T1 sequence (P56680 1-402): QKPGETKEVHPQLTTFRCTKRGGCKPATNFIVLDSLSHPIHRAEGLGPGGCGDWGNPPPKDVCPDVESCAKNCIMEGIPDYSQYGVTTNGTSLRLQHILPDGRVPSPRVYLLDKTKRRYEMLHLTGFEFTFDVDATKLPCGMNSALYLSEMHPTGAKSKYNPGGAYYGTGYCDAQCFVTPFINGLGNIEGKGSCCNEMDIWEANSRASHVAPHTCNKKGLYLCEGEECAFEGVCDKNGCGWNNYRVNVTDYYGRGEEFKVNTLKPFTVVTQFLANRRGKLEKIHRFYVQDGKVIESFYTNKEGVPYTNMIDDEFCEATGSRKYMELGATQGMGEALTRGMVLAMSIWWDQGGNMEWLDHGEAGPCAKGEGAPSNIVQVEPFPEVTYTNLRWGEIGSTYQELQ
From the text: continuous fluorescence inhibition kinetics with 4MU-GG, kapp vs [inhibitor]; also intact MS and crystal structure on HiCel7B

HiCel7B [2] = target: T1, HiCel7B; experiment: continuous fluorescence inhibition kinetics with 4MU-GG, kapp vs [inhibitor]; format: biochemical; settings: covalent, 50 mM sodium phosphate pH 7, 25 °C, 50 μM 4MU-GG, corrected for substrate KM, read-out: HiCel7B / K I
From the text: continuous fluorescence inhibition kinetics with 4MU-GG, kapp vs [inhibitor] on HiCel7B

XynC = target: T2, XynC (Aspergillus niger, UniProt A2QFV7); experiment: biotin-avidin pulldown, label-free LC-MS/MS quantification; format: binding; settings: covalent; labelled compound; native secretome, 37 °C, 2 h
T2 construct: gene xlnC; native, in xylan-grown A. niger secretome; about 35 kDa band

CbhA = target: T3, CbhA (Aspergillus niger, UniProt Q9UVS9); experiment: as above; format: binding; settings: covalent; labelled compound; native secretome, 37 °C, 2 h
T3 construct: native, in xylan-grown A. niger secretome; about 60 kDa band
T3 sequence (Q9UVS9 18-452): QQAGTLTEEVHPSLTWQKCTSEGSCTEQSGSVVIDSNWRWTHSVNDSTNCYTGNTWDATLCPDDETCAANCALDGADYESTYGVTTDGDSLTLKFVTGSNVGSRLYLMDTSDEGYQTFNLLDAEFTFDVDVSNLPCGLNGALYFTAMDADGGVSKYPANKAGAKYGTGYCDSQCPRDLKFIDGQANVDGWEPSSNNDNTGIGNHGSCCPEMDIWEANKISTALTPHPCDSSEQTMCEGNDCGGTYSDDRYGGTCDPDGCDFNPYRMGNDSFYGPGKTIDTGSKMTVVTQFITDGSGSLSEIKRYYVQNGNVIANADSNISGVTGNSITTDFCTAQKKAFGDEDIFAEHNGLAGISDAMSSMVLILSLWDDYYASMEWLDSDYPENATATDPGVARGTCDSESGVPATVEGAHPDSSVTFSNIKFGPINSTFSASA

CbhB = target: T4, CbhB (Aspergillus niger, UniProt Q9UVS8); experiment: as above; format: binding; settings: covalent; labelled compound; native secretome, 37 °C, 2 h
T4 construct: native, in xylan-grown A. niger secretome; about 80 kDa band
T4 sequence (Q9UVS8 22-536): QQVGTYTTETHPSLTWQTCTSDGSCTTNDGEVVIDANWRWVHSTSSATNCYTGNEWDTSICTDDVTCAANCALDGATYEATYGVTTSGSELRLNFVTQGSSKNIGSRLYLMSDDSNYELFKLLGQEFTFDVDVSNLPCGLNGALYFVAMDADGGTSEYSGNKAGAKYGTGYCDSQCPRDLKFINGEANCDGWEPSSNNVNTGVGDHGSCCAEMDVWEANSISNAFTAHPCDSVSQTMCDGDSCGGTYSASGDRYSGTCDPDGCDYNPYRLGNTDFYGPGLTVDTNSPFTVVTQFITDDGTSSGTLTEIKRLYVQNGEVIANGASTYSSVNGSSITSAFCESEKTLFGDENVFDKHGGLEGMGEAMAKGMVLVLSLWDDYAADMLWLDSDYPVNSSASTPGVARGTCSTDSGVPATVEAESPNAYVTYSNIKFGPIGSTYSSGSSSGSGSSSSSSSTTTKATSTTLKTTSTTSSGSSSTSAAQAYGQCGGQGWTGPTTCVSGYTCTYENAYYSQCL

[3] = substrate: Cc1cc(=O)oc2cc(O[C@@H]3O[C@H](CO)[C@@H](O[C@@H]4O[C@H](CO)[C@@H](O)[C@H](O)[C@H]4O)[C@H](O)[C@H]3O)ccc12; experiment: fluorescence, 4-methylumbelliferone release; format: biochemical, Mycothermus thermophilus; settings: 50 mM sodium phosphate pH 7, 25 °C, corrected for inner filter effect
From the text: fluorescence, 4-methylumbelliferone release on HiCel7B | The KM value for the interaction of HiCel7B with 4MU-GG under the assay conditions

Q: How did the KI (inactivation) (HiCel7B [1]) turn out when `OC[C@@H]1C(O[C@@H]2O[C@H](CO)[C@@H](O)[C@H](O)[C@H]2O)C(O)C(O)[C@@H]2O[C@H]12` (stereo partly shown) [compound 1, Cellobiose configured cyclophellitol] was run?
A: 31 ± 4 µM

Q: For `[N-]=[N+]=NCCOCCOCCOCC(=O)N[C@H]1[C@H](O)[C@@H](O)[C@H](O[C@H]2[C@H](O)[C@@H](O)[C@@H]3O[C@@H]3[C@@H]2CO)O[C@@H]1CO` [compound 13, probe 13], which KI (inactivation) (HiCel7B [2]) is on record?
A: 3900 ± 300 nM

Q: With `OC[C@@H]1C(O[C@@H]2O[C@H](CO)[C@@H](O[C@@H]3O[C@H](CO)[C@@H](O)[C@H](O)[C@H]3O)[C@H](O)[C@H]2O)C(O)C(O)[C@@H]2O[C@H]12` (stereo partly shown) [compound 5, inhibitor 5] as the molecule, how does the KI (inactivation) (HiCel7B [2]; compound also hydrolysed internally by the enzyme) read?
A: 1900 ± 300 nM

Q: With `O=C(CCCC[C@@H]1SC[C@@H]2NC(=O)N[C@@H]21)NCCOCCOCCOCC(=O)N[C@H]1[C@H](O)[C@@H](O)[C@H](O[C@H]2[C@H](O)[C@@H](O)[C@@H]3O[C@@H]3[C@@H]2CO)O[C@@H]1CO` [compound 15, probe 15] as the molecule, how does the “biotin-avidin pulldown, label-free LC-MS/MS quantification” value (XynC) read?
A: relative to the negative control were CbhA, CbhB, and XynC

Q: And the “biotin-avidin pulldown, label-free LC-MS/MS quantification” value (CbhA)?
A: detected at elevated levels in the probe 15-treated samples relative to the negative control were CbhA

Q: And the “biotin-avidin pulldown, label-free LC-MS/MS quantification” value (CbhB)?
A: detected at elevated levels in the probe 15-treated samples relative to the negative control were CbhA, CbhB

B1: HiCel7B (Mycothermus thermophilus) (protein)
chain: QKPGETKEVHPQLTTFRCTKRGGCKPATNFIVLDSLSHPIHRAEGLGPGGCGDWGNPPPKDVCPDVESCAKNCIMEGIPDYSQYGVTTNGTSLRLQHILPDGRVPSPRVYLLDKTKRRYEMLHLTGFEFTFDVDATKLPCGMNSALYLSEMHPTGAKSKYNPGGAYYGTGYCDAQCFVTPFINGLGNIEGKGSCCNEMDIWEANSRASHVAPHTCNKKGLYLCEGEECAFEGVCDKNGCGWNNYRVNVTDYYGRGEEFKVNTLKPFTVVTQFLANRRGKLEKIHRFYVQDGKVIESFYTNKEGVPYTNMIDDEFCEATGSRKYMELGATQGMGEALTRGMVLAMSIWWDQGGNMEWLDHGEAGPCAKGEGAPSNIVQVEPFPEVTYTNLRWGEIGSTYQELQ
notes: purified enzyme, gift from Novozymes; deglycosylated for crystals
Q: With B1 as the molecule, how does the Km [3] read?
A: 76 µM
